Earlier results, collected in publication PMC8228323, “Biodegradation of L-Valine Alkyl Ester Ibuprofenates by Bacterial Cultures” (Materials, 2021).

How the values were obtained:
[1] = test system: microorganisms; parameters: method as in PMID 22644530, PMID 23262323, doi:10.4314/jasem.v25i3.5, PMID 33724810, PMID 33601200; conditions: at the applied concentration
[2] = parameters: method as in PMID 20111784; conditions: CO2 released, 0 to 28 days

SMILES | Inhibition of microbial activity [1] | Degree of biodegradability [2]
CC(C)Cc1ccc(C(C)C(=O)O)cc1 (centres unmarked) [IBU, ibuprofen] | did not inhibit the microbial activity | 
CCCCCCCCCCCCOS(=O)(=O)[O-].[Na+] [SDS, sodium dodecyl sulfate] |  | about 95%
CCCCCCCCOS(=O)(=O)[O-].CCCCOCCOC(=O)Cn1cc[n+](C)c1 [[BuOCH2CH2OCOCH2min][OctOSO3]] |  | more than 60%
CCCCCCCCOS(=O)(=O)[O-].CCOCCOC(=O)Cn1cc[n+](C)c1 [[EtOCH2CH2OCOCH2min][OctOSO3]] |  | 59%
CCCCCCCCOS(=O)(=O)[O-].CCCOCCOC(=O)Cn1cc[n+](C)c1 [[PrOCH2CH2OCOCH2min][OctOSO3]] |  | more than 60%
